Read-outs that look alike come from different tables or passages of the source.
What was measured:
[1] = test system: isolated, perfused guinea pig hearts; assay: Haemodynamic effects on isolated, perfused Langendorff hearts (guinea pigs); conditions: Cavia porcellus
Excerpt: (§1) The benzimidazoles according to the invention corresponding to the general formula I combine good oral availability with interesting pharmacological properties, especially cardiovascular effects, in particular positive inotropic and blood pressure lowering effects. They show an excellent cardiotonic activity in numerous pharmacological standard models, for example in vitro in the isolated, perfused Langendorff heart or in vivo on narcotised guinea pigs, where they produce a marked increase in contractility.
1. Investigations on isolated, perfused Langendorff Hearts (guinea pigs)
The arrangement of Langendorff was modified according to P. R. Beckett (J. Pharm. Pharmacol. 22, 818 (1970)) and R. M. Abel and R. L. Reis (Circ. Res. 27, 961 (1970)) to determine the haemodynamic effects of the compounds according to the invention on isolated, perfused guinea pig hearts. The spontaneously beating guinea pig hearts were catheterised in the left ventricle and perfused with solutions of the test substances in physiological saline solution/ethanol (9:1) at concentrations of 10^-4 to 10^-8 mol/1 at a constant perfusion pressure of 60 mm Hg.

[2] = test system: narcotised guinea pigs; assay: Haemodynamic characterisation on narcotised guinea pigs (in vivo model); design: species or system guinea pig; conditions: 10 μg/kg/min, infused through left jugular vein, under β-blockage (metoprolol 2 mg/kg i.m.)
Excerpt: as §1
2. Haemodynamic Characterisation on Narcotised Guinea Pigs (in vivo model)
The animals were narcotised with urethane (1.5 g/kg). The trachea was cannulated for volume controlled respiration. The two carotid arteries were then exposed operatively. A Tip catheter (3F) was introduced through the right carotid artery and moved forwards through the ascending aorta into the left ventricle while the pressure was continuously recorded. Successful passage through the aortic valves is recognised by the typical left ventricular pressure curve. A thermistor probe (3F, F. Edwards) is pushed forwards into the aortic arch through the left carotid for thermodilution. The thermistor probe also has a lumen for the recording of arterial blood pressure. A catheter is passed through the right jugular vein to be placed in front of the right auricle for application of the cold injectate (0.2 ml of 0.9% NaCl, 15° C.). The ECG is recorded in the first shunt. All substances are dissolved in physiological saline solution and infused through the left jugular vein (infusion volume 0 02 ml/min). The drug is applied after haemodynamic stabilisation and under β-blockage (metoprolol 2 mg/kg i.m.). All circulatory parameters are continuously registered on a direct recorder. The pulse frequency is calculated from the ECG, the contractility (dp/dt) is calculated from the […] and the volumetric cardiac output per unit time is calculated from the thermodilution curve.

[3] = biological target: T1, phosphodiesterase type III obtained from ox heart (Bos taurus, UniProt A0A3Q1M1E8); assay: Inhibition of phosphodiesterase type III, Method A (Diederen and Weisenberger); assay type: biochemical; conditions: read-out: percentage inhibition of FDE-III activity; for inhibition at 10 µM: 10^-5 mol/l; for inhibition at 1 µM: 10^-6 mol/l; for inhibition at 0.1 µM: 10^-7 mol/l
T1 sequence (A0A3Q1M1E8 1-1126): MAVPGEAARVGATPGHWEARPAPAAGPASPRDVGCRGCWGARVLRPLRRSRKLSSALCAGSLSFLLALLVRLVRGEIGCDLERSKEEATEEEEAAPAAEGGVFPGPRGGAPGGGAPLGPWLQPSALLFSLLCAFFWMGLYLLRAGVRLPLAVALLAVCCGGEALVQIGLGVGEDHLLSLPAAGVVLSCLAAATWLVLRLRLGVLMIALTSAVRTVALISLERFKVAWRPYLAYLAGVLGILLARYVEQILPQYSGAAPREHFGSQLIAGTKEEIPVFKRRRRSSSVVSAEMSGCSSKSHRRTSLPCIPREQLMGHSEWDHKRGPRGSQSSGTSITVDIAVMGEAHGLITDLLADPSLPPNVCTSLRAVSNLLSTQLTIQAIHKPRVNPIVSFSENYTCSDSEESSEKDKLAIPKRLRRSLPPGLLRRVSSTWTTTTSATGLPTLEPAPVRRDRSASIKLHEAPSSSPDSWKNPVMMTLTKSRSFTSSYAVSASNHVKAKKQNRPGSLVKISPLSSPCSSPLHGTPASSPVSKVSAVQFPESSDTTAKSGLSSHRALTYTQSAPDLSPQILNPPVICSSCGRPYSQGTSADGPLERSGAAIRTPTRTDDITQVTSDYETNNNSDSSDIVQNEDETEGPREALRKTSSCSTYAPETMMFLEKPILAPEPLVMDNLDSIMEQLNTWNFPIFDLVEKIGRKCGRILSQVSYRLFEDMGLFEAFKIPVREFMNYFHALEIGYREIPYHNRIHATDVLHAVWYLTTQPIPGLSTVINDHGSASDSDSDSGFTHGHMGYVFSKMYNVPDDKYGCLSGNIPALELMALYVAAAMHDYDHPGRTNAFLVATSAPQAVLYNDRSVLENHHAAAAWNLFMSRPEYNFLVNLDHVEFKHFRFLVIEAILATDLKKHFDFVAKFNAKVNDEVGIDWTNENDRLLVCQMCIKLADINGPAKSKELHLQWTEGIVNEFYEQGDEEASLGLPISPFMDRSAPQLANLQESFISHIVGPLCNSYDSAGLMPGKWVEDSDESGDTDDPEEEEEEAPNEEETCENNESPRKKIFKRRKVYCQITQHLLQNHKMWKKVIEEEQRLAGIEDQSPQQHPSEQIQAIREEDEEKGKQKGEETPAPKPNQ
Experimental: (§2) The inhibitory action of the compounds according to the invention on phosphodiesterase was tested on phosphodiesterase type III obtained from ox heart (Sigma Chemie, BRD) by the methods of W. Diederen and H. Weisenberger (Arzneim.-Forschumg 31, 177 (1981)) (Method A) and of M. A. Appleman and W. L. Terasaki (Advances in Cyclic Nucleotide Research, volume 5, Raven Press, New York (1975), page 153) (Method B).

[4] = biological target: T1, phosphodiesterase type III obtained from ox heart; assay: Inhibition of phosphodiesterase type III, Method B (Appleman and Terasaki); assay type: biochemical; conditions: read-out: percentage inhibition of FDE-III activity; for inhibition at 100 µM: 10^-4 mol/l; for inhibition at 10 µM: 10^-5 mol/l; for inhibition at 1 µM: 10^-6 mol/l
Experimental: as §2

[5] = test system: phosphodiesterase type III; conditions: heart muscle cells; cited from earlier work
[6] = cited from earlier work
[7] = concentration range 10^-7 - 10^-5 mol/l, read-out: Maximum percentage changes compared with controls: Cardiac Frequency
[8] = concentration range 10^-7 - 10^-5 mol/l, read-out: Maximum percentage changes compared with controls: Contractility dp/dt
[9] = concentration range 10^-7 - 10^-5 mol/l, read-out: Maximum percentage changes compared with controls: Coronary Flow
[10] = due to the mechanisms of their action

| inhibition at 100 µM ([3]; 10^-4 mol/l) [%] | inhibition at 10 µM [3] [%] | inhibition at 1 µM [3] [%] | inhibition at 0.1 µM [3] [%] | inhibition at 100 µM [4] [%] | inhibition at 10 µM [4] [%] | inhibition at 1 µM [4] [%] | inhibition at 0.1 µM ([4]; 10^-7 mol/l) [%] | SMILES | Emax ([1]; concentration range 10^-8 - 10^-4 mol/l, read-out: Maximum percentage changes compared with controls: Cardiac Frequency) [%] | Emax ([1]; concentration range 10^-8 - 10^-4 mol/l, read-out: Maximum percentage changes compared with controls: Contractility dp/dt) [%] | Emax ([1]; concentration range 10^-8 - 10^-4 mol/l, read-out: Maximum percentage changes compared with controls: Coronary Flow) [%] | Maximum percentage changes compared with initial values: Blood Pressure sys. [2] [%] | Maximum percentage changes compared with initial values: Cardiac Frequency [2] | Maximum percentage changes compared with initial values: Contractility dp/dt [2] | Emax [1, 7] [%] | Emax [1, 8] [%] | Emax [1, 9] [%] | positive inotropic effect by inhibiting phosphodiesterases, in particular type III [5] | undesirable side effects ([6]; in vivo) | undesirable side effects [6, 10] |
| --- | --- | --- | --- | --- | --- | --- | --- | --- | --- | --- | --- | --- | --- | --- | --- | --- | --- | --- | --- | --- |
| 10 | 7 | 0 | 0 | 4 | 0 | 0 | 0 | CC1CC(=O)NN=C1c1ccc2[nH]c(CCCN)nc2c1 (centres unmarked) [Example 1] | 11 | 76 | 25 | -25 | +20% | +38% | – | – | – | – | – | – |
| – | – | – | – | – | – | – | – | CC1CC(=O)NN=C1c1ccc2[nH]c(CCCNC(=N)NCCCc3c[nH]cn3)nc2c1 (centres unmarked) [Example 6] | – | – | – | -15 | +17% | +97% | 20 | 161 | 52 | – | – | – |
| – | 30 | 15 | 7 | 57 | 19 | 5 | – | COc1ccc(-c2nc3ccc(C4=NNC(=O)CC4C)cc3[nH]2)cc1 (centres unmarked) [Pimobendane, reference compound] | – | – | – | -51 | +3% | +10% | 8 | 99 | 76 | positive inotropic effect | undesirable side effects due to the mechanisms of their action, such as thrombocytopaenia or gastrointestinal disturbances | – |
| – | – | – | – | – | – | – | – | Nc1cc(-c2ccncc2)c[nH]c1=O [amrinone] | – | – | – | – | – | – | – | – | – | positive inotropic effect | – | undesirable side effects due to the mechanisms of their action, such as thrombocytopaenia or gastrointestinal disturbances |
| – | – | – | – | – | – | – | – | Cc1[nH]c(=O)c(C#N)cc1-c1ccncc1 [milrinone] | – | – | – | – | – | – | – | – | – | positive inotropic effect | – | undesirable side effects due to the mechanisms of their action, such as thrombocytopaenia or gastrointestinal disturbances |

Source: patent US4957920A, “Benzimidazoles, and pharmaceutical preparations containing these compounds” (priority 1987, dated 1990)
